Experimental data published in the OligoGym collection.
Several values for one entry are separate records, joined by “and”; a condition that tells them apart may be missing. Equal values may be shown once. HELM strings list units from the 5' end as sugar, base in round brackets, then linkage (d deoxyribose, r ribose, m 2'-O-methyl, p phosphodiester). Strings are as the collection lists them, not checked against the first reports. ss, as = sense and antisense strand; [fl2r] = 2'-fluoro

Conditions: siRNA
Further: test system not given here.

Substance	target mRNA knockdown
RNA1{r(A)p.r(A)p.r(C)p.r(U)p.r(C)p.m(U)p.r(A)p.r(C)p.r(U)p.r(G)p.r(U)p.r(G)p.r(G)p.r(A)p.r(G)p.r(U)p.r(C)p.r(G)p.r(G)p.r(T)p.r(T)}|RNA2{r(C)p.r(C)p.r(G)p.r(A)p.r(C)p.r(U)p.r(C)p.r(C)p.r(A)p.r(C)p.r(A)p.r(G)p.m(U)p.r(A)p.r(G)p.r(A)p.r(G)p.r(U)p.r(U)p.r(T)p.r(T)}$$$RNA1{StrandType:ss}|RNA2{StrandType:as}$	69%
RNA1{r(A)p.r(A)p.r(C)p.r(U)p.r(C)p.r(U)p.r(A)p.r(C)p.[fl2r](U)p.r(G)p.r(U)p.r(G)p.r(G)p.r(A)p.r(G)p.r(U)p.r(C)p.r(G)p.r(G)p.r(T)p.r(T)}|RNA2{r(C)p.r(C)p.r(G)p.r(A)p.r(C)p.r(U)p.r(C)p.[fl2r](C)p.r(A)p.r(C)p.r(A)p.r(G)p.[fl2r](U)p.r(A)p.r(G)p.r(A)p.r(G)p.r(U)p.r(U)p.r(T)p.r(T)}$$$RNA1{StrandType:ss}|RNA2{StrandType:as}$	72%
RNA1{r(A)p.r(A)p.r(C)p.r(U)p.r(U)p.r(C)p.m(U)p.r(G)p.r(G)p.r(G)p.r(A)p.r(G)p.r(C)p.r(C)p.r(U)p.r(C)p.m(C)p.r(A)p.r(A)p.r(T)p.r(T)}|RNA2{r(U)p.m(U)p.r(G)p.r(G)p.r(A)p.r(G)p.r(G)p.r(C)p.r(U)p.r(C)p.r(C)p.m(C)p.r(A)p.r(G)p.r(A)p.r(A)p.r(G)p.r(U)p.r(U)p.r(T)p.r(T)}$$$RNA1{StrandType:ss}|RNA2{StrandType:as}$	69%
RNA1{r(A)p.r(A)p.r(C)p.r(U)p.r(U)p.r(C)p.r(U)p.r(G)p.r(G)p.r(G)p.r(A)p.r(G)p.r(C)p.r(C)p.r(U)p.r(C)p.m(C)p.r(A)p.r(A)p.r(T)p.r(T)}|RNA2{r(U)p.r(U)p.r(G)p.r(G)p.r(A)p.r(G)p.r(G)p.r(C)p.r(U)p.r(C)p.r(C)p.m(C)p.r(A)p.r(G)p.r(A)p.r(A)p.r(G)p.r(U)p.r(U)p.r(T)p.r(T)}$$$RNA1{StrandType:ss}|RNA2{StrandType:as}$	73%
RNA1{r(A)p.r(A)p.r(G)p.[fl2r](U)p.r(A)p.r(G)p.r(U)p.r(C)p.r(C)p.r(C)p.[fl2r](C)p.r(C)p.r(U)p.[fl2r](U)p.r(G)p.r(A)p.r(A)p.r(G)p.r(A)p.r(T)p.r(T)}|RNA2{r(U)p.r(C)p.r(U)p.r(U)p.[fl2r](C)p.r(A)p.r(A)p.r(G)p.r(G)p.r(G)p.r(G)p.r(G)p.r(A)p.r(C)p.[fl2r](U)p.r(A)p.r(C)p.r(U)p.r(U)p.r(T)p.r(T)}$$$RNA1{StrandType:ss}|RNA2{StrandType:as}$	64%
RNA1{r(A)p.r(A)p.r(G)p.m(G)p.m(A)p.r(G)p.r(A)p.r(U)p.m(C)p.m(A)p.m(A)p.r(C)p.r(A)p.r(U)p.m(U)p.m(U)p.r(U)p.r(C)p.r(A)p.r(T)p.r(T)}|RNA2{m(U)p.m(G)p.m(A)p.r(A)p.r(A)p.m(A)p.m(U)p.m(G)p.r(U)p.r(U)p.r(G)p.m(A)p.m(U)p.m(C)p.r(U)p.r(C)p.m(C)p.m(U)p.m(U)p.r(T)p.r(T)}$$$RNA1{StrandType:ss}|RNA2{StrandType:as}$	38%
RNA1{r(A)p.r(A)p.r(G)p.r(G)p.m(C)p.r(A)p.m(U)p.m(G)p.r(C)p.r(U)p.r(U)p.r(C)p.r(G)p.r(G)p.r(A)p.r(A)p.r(A)p.r(C)p.r(U)p.r(T)p.r(T)}|RNA2{r(A)p.r(G)p.r(U)p.r(U)p.r(U)p.r(C)p.r(C)p.r(G)p.r(A)p.r(A)p.r(G)p.m(C)p.r(A)p.m(U)p.r(G)p.r(C)p.r(C)p.r(U)p.r(U)p.r(T)p.r(T)}$$$RNA1{StrandType:ss}|RNA2{StrandType:as}$	87%
RNA1{r(A)p.r(A)p.r(G)p.r(G)p.m(C)p.r(A)p.r(U)p.r(G)p.r(C)p.r(U)p.r(U)p.r(C)p.r(G)p.r(G)p.r(A)p.r(A)p.r(A)p.r(C)p.r(U)p.r(T)p.r(T)}|RNA2{r(A)p.r(G)p.r(U)p.r(U)p.r(U)p.r(C)p.r(C)p.r(G)p.r(A)p.r(A)p.r(G)p.m(C)p.r(A)p.r(U)p.r(G)p.r(C)p.r(C)p.r(U)p.r(U)p.r(T)p.r(T)}$$$RNA1{StrandType:ss}|RNA2{StrandType:as}$	95%
RNA1{r(A)p.r(A)p.r(G)p.r(G)p.r(A)p.r(A)p.r(C)p.r(G)p.r(G)p.r(G)p.r(G)p.r(A)p.m(C)p.r(A)p.r(C)p.r(U)p.m(U)p.r(A)p.r(C)p.r(T)p.r(T)}|RNA2{r(G)p.m(U)p.r(A)p.r(A)p.r(G)p.m(U)p.r(G)p.r(U)p.r(C)p.r(C)p.r(C)p.r(C)p.r(G)p.r(U)p.r(U)p.r(C)p.r(C)p.r(U)p.r(U)p.r(T)p.r(T)}$$$RNA1{StrandType:ss}|RNA2{StrandType:as}$	35%
RNA1{r(A)p.r(A)p.r(G)p.r(G)p.r(A)p.r(A)p.r(C)p.r(G)p.r(G)p.r(G)p.r(G)p.r(A)p.r(C)p.r(A)p.r(C)p.r(U)p.r(U)p.r(A)p.r(C)p.r(T)p.r(T)}|RNA2{r(G)p.m(U)p.r(A)p.r(A)p.r(G)p.r(U)p.r(G)p.r(U)p.r(C)p.r(C)p.r(C)p.r(C)p.r(G)p.r(U)p.r(U)p.r(C)p.r(C)p.r(U)p.r(U)p.r(T)p.r(T)}$$$RNA1{StrandType:ss}|RNA2{StrandType:as}$	38%
RNA1{r(A)p.r(A)p.r(G)p.r(G)p.r(A)p.r(C)p.r(C)p.[fl2r](U)p.r(A)p.r(G)p.r(A)p.r(G)p.r(G)p.r(A)p.r(G)p.r(U)p.[fl2r](C)p.r(A)p.r(C)p.r(T)p.r(T)}|RNA2{r(G)p.[fl2r](U)p.r(G)p.r(A)p.r(C)p.r(U)p.r(C)p.r(C)p.r(U)p.r(C)p.[fl2r](U)p.r(A)p.r(G)p.r(G)p.r(U)p.r(C)p.r(C)p.r(U)p.r(U)p.r(T)p.r(T)}$$$RNA1{StrandType:ss}|RNA2{StrandType:as}$	87%
RNA1{r(A)p.r(A)p.r(G)p.r(G)p.r(A)p.r(C)p.r(C)p.[fl2r](U)p.r(A)p.r(G)p.r(A)p.r(G)p.r(G)p.r(A)p.r(G)p.r(U)p.r(C)p.r(A)p.r(C)p.r(T)p.r(T)}|RNA2{r(G)p.r(U)p.r(G)p.r(A)p.r(C)p.r(U)p.r(C)p.r(C)p.r(U)p.r(C)p.[fl2r](U)p.r(A)p.r(G)p.r(G)p.r(U)p.r(C)p.r(C)p.r(U)p.r(U)p.r(T)p.r(T)}$$$RNA1{StrandType:ss}|RNA2{StrandType:as}$	88%
RNA1{r(A)p.r(A)p.r(G)p.r(G)p.r(A)p.r(C)p.r(C)p.m(U)p.r(A)p.r(G)p.r(A)p.r(G)p.r(G)p.r(A)p.r(G)p.r(U)p.m(C)p.m(A)p.r(C)p.r(T)p.r(T)}|RNA2{r(G)p.m(U)p.r(G)p.r(A)p.r(C)p.r(U)p.r(C)p.r(C)p.r(U)p.r(C)p.m(U)p.r(A)p.r(G)p.r(G)p.r(U)p.r(C)p.r(C)p.r(U)p.r(U)p.r(T)p.r(T)}$$$RNA1{StrandType:ss}|RNA2{StrandType:as}$	78%
RNA1{r(A)p.r(A)p.r(G)p.r(G)p.r(A)p.r(C)p.r(C)p.m(U)p.r(A)p.r(G)p.r(A)p.r(G)p.r(G)p.r(A)p.r(G)p.r(U)p.r(C)p.r(A)p.r(C)p.r(T)p.r(T)}|RNA2{r(G)p.m(U)p.r(G)p.r(A)p.r(C)p.r(U)p.r(C)p.r(C)p.r(U)p.r(C)p.r(U)p.r(A)p.r(G)p.r(G)p.r(U)p.r(C)p.r(C)p.r(U)p.r(U)p.r(T)p.r(T)}$$$RNA1{StrandType:ss}|RNA2{StrandType:as}$	80%
RNA1{r(A)p.r(A)p.r(G)p.r(G)p.r(A)p.r(G)p.r(A)p.m(U)p.m(C)p.r(A)p.r(A)p.m(C)p.r(A)p.m(U)p.m(U)p.m(U)p.m(U)p.m(C)p.r(A)p.r(T)p.r(T)}|RNA2{m(U)p.r(G)p.r(A)p.r(A)p.r(A)p.r(A)p.m(U)p.r(G)p.m(U)p.m(U)p.r(G)p.r(A)p.m(U)p.m(C)p.m(U)p.m(C)p.m(C)p.m(U)p.m(U)p.r(T)p.r(T)}$$$RNA1{StrandType:ss}|RNA2{StrandType:as}$	37%
RNA1{r(A)p.r(A)p.r(G)p.r(G)p.r(A)p.r(G)p.r(A)p.m(U)p.m(C)p.r(A)p.r(A)p.m(C)p.r(A)p.m(U)p.m(U)p.m(U)p.m(U)p.m(C)p.r(A)p.r(T)p.r(T)}|RNA2{m(U)p.r(G)p.r(A)p.r(A)p.r(A)p.r(A)p.m(U)p.r(G)p.r(U)p.r(U)p.r(G)p.r(A)p.m(U)p.m(C)p.m(U)p.m(C)p.m(C)p.m(U)p.m(U)p.r(T)p.r(T)}$$$RNA1{StrandType:ss}|RNA2{StrandType:as}$	53% and 74%
RNA1{r(A)p.r(A)p.r(G)p.r(G)p.r(A)p.r(G)p.r(A)p.r(U)p.r(C)p.r(A)p.r(A)p.r(C)p.r(A)p.r(U)p.r(U)p.r(U)p.m(U)p.m(C)p.m(A)p.r(T)p.r(T)}|RNA2{r(U)p.r(G)p.r(A)p.r(A)p.r(A)p.r(A)p.r(U)p.r(G)p.r(U)p.r(U)p.r(G)p.r(A)p.r(U)p.r(C)p.r(U)p.r(C)p.m(C)p.m(U)p.m(U)p.r(T)p.r(T)}$$$RNA1{StrandType:ss}|RNA2{StrandType:as}$	73%
RNA1{r(A)p.r(A)p.r(G)p.r(G)p.r(C)p.r(C)p.r(A)p.r(A)p.r(C)p.r(C)p.r(G)p.r(A)p.[fl2r](U)p.r(A)p.r(C)p.r(U)p.r(U)p.r(C)p.r(U)p.r(T)p.r(T)}|RNA2{r(A)p.r(G)p.r(A)p.r(A)p.r(G)p.[fl2r](U)p.r(A)p.r(U)p.r(C)p.r(G)p.r(G)p.r(U)p.r(U)p.r(G)p.r(G)p.r(C)p.r(C)p.r(U)p.r(U)p.r(T)p.r(T)}$$$RNA1{StrandType:ss}|RNA2{StrandType:as}$	69%
RNA1{r(A)p.r(A)p.r(G)p.r(U)p.[fl2r](A)p.r(G)p.r(U)p.r(C)p.r(C)p.r(C)p.r(C)p.r(C)p.r(U)p.r(U)p.r(G)p.r(A)p.r(A)p.r(G)p.r(A)p.r(T)p.r(T)}|RNA2{r(U)p.r(C)p.r(U)p.r(U)p.r(C)p.r(A)p.r(A)p.r(G)p.r(G)p.r(G)p.r(G)p.r(G)p.r(A)p.r(C)p.[fl2r](U)p.r(A)p.r(C)p.r(U)p.r(U)p.r(T)p.r(T)}$$$RNA1{StrandType:ss}|RNA2{StrandType:as}$	69%
RNA1{r(A)p.r(C)p.r(A)p.r(U)p.r(A)p.r(G)p.r(A)p.r(G)p.r(G)p.r(A)p.r(A)p.r(G)p.r(A)p.r(C)p.r(G)p.r(C)p.r(G)p.r(G)p.r(A)p.r(T)p.r(T)}|RNA2{r(U)p.r(C)p.r(C)p.r(G)p.r(C)p.r(G)p.r(U)p.r(C)p.r(U)p.r(U)p.r(C)p.r(C)p.r(U)p.r(C)p.[fl2r](U)p.r(A)p.r(U)p.r(G)p.r(U)p.r(T)p.r(T)}$$$RNA1{StrandType:ss}|RNA2{StrandType:as}$	89%
